The nature of data set [1]: refractive index (Na D-line) (dimensionless). Conditions: 101.33 kPa, Liquid, Standard Abbe refractometry.
The conditions of data set [2]: 101 kPa, Liquid, Vibrating tube method.
Data set [3] in a line: refractive index (Na D-line) (dimensionless); φn = volume fraction of the nth substance listed. Conditions: 101 kPa, Liquid, Standard Abbe refractometry, φ2 = 0.
Data set [4] is described as follows: xn = mol fraction of the nth substance listed. Particulars: 101 kPa, Liquid, Vibrating tube method, x2 = 0.

± gives the expanded uncertainty stated by the source.

As usually defined, the refractive index is the speed of light in vacuum divided by its phase velocity in the sample. A word on the mass density: it is the mass of a sample divided by its volume. As for `CCc1ccccc1` [ethylbenzene], the refractive index in data set [1] (288.15 K) is on record as 1.49834 ± 0.00031; in data set [1] (298.15 K) it was 1.49297 ± 0.00031; in data set [1] (308.15 K) it was 1.48747 ± 0.00031; in data set [1] (318.15 K) it was 1.48202 ± 0.00031; in data set [1] (328.15 K), 1.47649 ± 0.00031. The mass density in data set [2] (288.15 K) amounted to 871.31 ± 0.13 kg/m3; in data set [2] (298.15 K), 862.55 ± 0.13 kg/m3; in data set [2] (308.15 K) it was 853.75 ± 0.13 kg/m3; in data set [2] (318.15 K), 844.87 ± 0.13 kg/m3; in data set [2] (328.15 K), 835.93 ± 0.13 kg/m3.

On to `Cc1cccc(C)c1` [1,3-dimethylbenzene] + C=C[Si]1(C)O[Si](C)(C=C)O[Si](C)(C=C)O[Si](C)(C=C)O1, for which the refractive index came out at 1.49969 ± 0.00031 in data set [3] (288.15 K); 1.49444 ± 0.00031 in data set [3] (298.15 K); 1.48894 ± 0.00031 in data set [3] (308.15 K); 1.48355 ± 0.00031 in data set [3] (318.15 K); 1.4782 ± 0.0003 in data set [3] (328.15 K). Further, the mass density was found to be 868.39 ± 0.13 kg/m3 in data set [4] (288.15 K); 859.83 ± 0.13 kg/m3 in data set [4] (298.15 K); 851.25 ± 0.13 kg/m3 in data set [4] (308.15 K); 842.58 ± 0.13 kg/m3 in data set [4] (318.15 K); 833.85 ± 0.14 kg/m3 in data set [4] (328.15 K).

In the case of `Cc1ccccc1C` [1,2-dimethylbenzene], the refractive index in data set [1] (288.15 K) worked out at 1.50775 ± 0.00031; in data set [1] (298.15 K), 1.50257 ± 0.00031; in data set [1] (308.15 K), 1.49724 ± 0.00031; in data set [1] (318.15 K) it was 1.49201 ± 0.00031; in data set [1] (328.15 K) it was 1.48661 ± 0.00031. The mass density in data set [2] (288.15 K) is reported as 884.07 ± 0.12 kg/m3; in data set [2] (298.15 K) it was 875.67 ± 0.13 kg/m3; in data set [2] (308.15 K) it was 867.3 ± 0.1 kg/m3; in data set [2] (318.15 K), 858.81 ± 0.13 kg/m3; in data set [2] (328.15 K), 850.24 ± 0.13 kg/m3.

For `Cc1cccc(C)c1` [1,3-dimethylbenzene], the refractive index in data set [1] (288.15 K) was determined as 1.49969 ± 0.00031; in data set [1] (298.15 K), 1.49444 ± 0.00031; in data set [1] (308.15 K), 1.48894 ± 0.00031; in data set [1] (318.15 K), 1.48355 ± 0.00031; in data set [1] (328.15 K), 1.4782 ± 0.0003. Also, the mass density in data set [2] (288.15 K) was determined as 868.39 ± 0.13 kg/m3; in data set [2] (298.15 K), 859.83 ± 0.13 kg/m3; in data set [2] (308.15 K) it was 851.25 ± 0.13 kg/m3; in data set [2] (318.15 K), 842.58 ± 0.13 kg/m3; in data set [2] (328.15 K), 833.85 ± 0.14 kg/m3.

For the molecule `Cc1ccc(C)cc1` [1,4-dimethylbenzene] + C=C[Si]1(C)O[Si](C)(C=C)O[Si](C)(C=C)O[Si](C)(C=C)O1, the refractive index in data set [3] (288.15 K) is 1.49836 ± 0.00031; in data set [3] (298.15 K), 1.49298 ± 0.00031; in data set [3] (308.15 K), 1.48743 ± 0.00031; in data set [3] (318.15 K), 1.48202 ± 0.00031; in data set [3] (328.15 K), 1.47654 ± 0.00031. The mass density in data set [4] (288.15 K) came to 865.3 ± 0.1 kg/m3; in data set [4] (298.15 K) it was 856.62 ± 0.13 kg/m3; in data set [4] (308.15 K), 847.97 ± 0.13 kg/m3; in data set [4] (318.15 K), 839.21 ± 0.13 kg/m3; in data set [4] (328.15 K), 830.39 ± 0.14 kg/m3.

With `CCc1ccccc1` [ethylbenzene] + C=C[Si]1(C)O[Si](C)(C=C)O[Si](C)(C=C)O[Si](C)(C=C)O1, the refractive index in data set [3] (288.15 K) was 1.49834 ± 0.00031; in data set [3] (298.15 K) it was 1.49297 ± 0.00031; in data set [3] (308.15 K), 1.48747 ± 0.00031; in data set [3] (318.15 K), 1.48202 ± 0.00031; in data set [3] (328.15 K), 1.47649 ± 0.00031. The mass density in data set [4] (288.15 K) is 871.31 ± 0.13 kg/m3; in data set [4] (298.15 K), 862.55 ± 0.13 kg/m3; in data set [4] (308.15 K), 853.75 ± 0.13 kg/m3; in data set [4] (318.15 K), 844.87 ± 0.13 kg/m3; in data set [4] (328.15 K) it was 835.93 ± 0.13 kg/m3.

With `C=C[Si]1(C)O[Si](C)(C=C)O[Si](C)(C=C)O[Si](C)(C=C)O1` (stereo not given) [2,4,6,8-tetramethyl-2,4,6,8-tetravinylcycloterasiloxane], the refractive index came out at 1.43674 ± 0.00033 in data set [1] (288.15 K); 1.43202 ± 0.00033 in data set [1] (298.15 K); 1.4273 ± 0.0003 in data set [1] (308.15 K); 1.42257 ± 0.00033 in data set [1] (318.15 K); 1.41785 ± 0.00033 in data set [1] (328.15 K). The mass density in data set [2] (288.15 K) was 992.74 ± 0.13 kg/m3; in data set [2] (298.15 K), 982.54 ± 0.13 kg/m3; in data set [2] (308.15 K), 972.34 ± 0.13 kg/m3; in data set [2] (318.15 K) it was 962.14 ± 0.13 kg/m3; in data set [2] (328.15 K) it was 951.94 ± 0.13 kg/m3.

Take `Cc1ccccc1C` [1,2-dimethylbenzene] + C=C[Si]1(C)O[Si](C)(C=C)O[Si](C)(C=C)O[Si](C)(C=C)O1: the refractive index in data set [3] (288.15 K) stood at 1.50775 ± 0.00031; in data set [3] (298.15 K) it was 1.50257 ± 0.00031; in data set [3] (308.15 K) it was 1.49724 ± 0.00031; in data set [3] (318.15 K) it was 1.49201 ± 0.00031; in data set [3] (328.15 K), 1.48661 ± 0.00031. For the same molecule, the mass density was 884.07 ± 0.12 kg/m3 in data set [4] (288.15 K); 875.67 ± 0.13 kg/m3 in data set [4] (298.15 K); 867.3 ± 0.1 kg/m3 in data set [4] (308.15 K); 858.81 ± 0.13 kg/m3 in data set [4] (318.15 K); 850.24 ± 0.13 kg/m3 in data set [4] (328.15 K).

`Cc1ccc(C)cc1` [1,4-dimethylbenzene]: the refractive index in data set [1] (288.15 K) is given as 1.49836 ± 0.00031; in data set [1] (298.15 K), 1.49298 ± 0.00031; in data set [1] (308.15 K), 1.48743 ± 0.00031; in data set [1] (318.15 K), 1.48202 ± 0.00031; in data set [1] (328.15 K), 1.47654 ± 0.00031. Besides, the mass density in data set [2] (288.15 K) came out at 865.3 ± 0.1 kg/m3; in data set [2] (298.15 K), 856.62 ± 0.13 kg/m3; in data set [2] (308.15 K), 847.97 ± 0.13 kg/m3; in data set [2] (318.15 K) it was 839.21 ± 0.13 kg/m3; in data set [2] (328.15 K), 830.39 ± 0.14 kg/m3.

For the origin of these results see the NIST ThermoML archive (doi:10.1016/j.jct.2012.08.010).
